This is an account of results in publication PMC7470102, “Synthesis, anticancer evaluation and molecular docking studies of new benzimidazole- 1,3,4-oxadiazole derivatives as human topoisomerase types I poison” (Journal of Enzyme Inhibition and Medicinal Chemistry, 2020).

Assay [1] deals with A549 (lung carcinoma cell line). Nature of the assay: MTT cytotoxicity assay, A549. The format is cell-based. The note with it: read-out: IC50 against A549. As for the experimental part:
(§1) The anticancer activity of compounds 5a–5o were screened according to the MTT assays. The MTT assays were performed as previously described[32]^,[33]. Anticancer activity of final compounds was assessed against five different cancer cell lines A549 (lung carcinoma cell line), HeLa (cervical cell line), MCF-7 (human breast adenocarcinoma cell line), HepG2 (human liver carcinoma cell line) and C6 (rat glioma cell line) cell lines as well as NIH3T3 (mouse embryo fibroblast cell line). Doxorubicin and Hoechst 33342 were used as the reference drugs in the MTT assays.
(§2) The benzimidazole-1,3,4-oxadiazole derivatives (5a-5o) were tested their cytotoxic effects in vitro using five cancer cell line A549 (lung carcinoma cell line), HeLa (cervical cell line), MCF-7 (human breast adenocarcinoma cell line), HepG2 (human liver carcinoma cell line) and C6 (rat glioma cell line) cell lines as well as NIH3T3 (mouse embryo fibroblast cell line). Doxorubicin and Hoechst 33342 were used for this study as a reference drugs.
On the technique in general: Formazan colour is commonly taken as a measure of viable cells.

The test system of assay [2] is C6 cell line. As to the kind of experiment: Flow cytometric analysis (Annexin V/PI), C6. The format is cell-based, rat. The note with it: at IC50 concentrations. As for the experimental part: (§3) Death pathway of the carcinogenic cell lines was detected by Annexin V-FITC Apoptosis Detection Kit (BD, Pharmingen) as reported previously described. […] FCS Express software was used to display the percent of normal and apoptotic cells at different stages. […] The experiments were carried out in triplicates.
(§4) Annexin V/PI staining on tested cancer cells treated with the active compounds was performed to investigate induction of apoptosis. […] According to the MTT assay, compound 5n for A549 cell line; compounds 5a, 5d, 5e, 5o for MCF-7 cell line; compound 5k for C6 cell line; compound 5a for HepG2 cell line; compounds 5b, 5l and 5n for HeLa cell line were selected for the flow cytometric analysis. Furthermore, flow cytometry studies were performed for reference drug doxorubicin. Flow cytometric analysis diagrams of tested compounds and doxorubicin at IC50/2, IC50, and 2xIC50 concentrations on cancer cells were presented in Figures 7–11.
A general note: Flow cytometry measures light scatter and fluorescence of single cells or particles in a stream.

The target in assay [3] is T1, Topoisomerase I (Homo sapiens, UniProt P11387).
T1 construct: purchased TopoGen TG1018-2
T1 sequence (P11387 1-765): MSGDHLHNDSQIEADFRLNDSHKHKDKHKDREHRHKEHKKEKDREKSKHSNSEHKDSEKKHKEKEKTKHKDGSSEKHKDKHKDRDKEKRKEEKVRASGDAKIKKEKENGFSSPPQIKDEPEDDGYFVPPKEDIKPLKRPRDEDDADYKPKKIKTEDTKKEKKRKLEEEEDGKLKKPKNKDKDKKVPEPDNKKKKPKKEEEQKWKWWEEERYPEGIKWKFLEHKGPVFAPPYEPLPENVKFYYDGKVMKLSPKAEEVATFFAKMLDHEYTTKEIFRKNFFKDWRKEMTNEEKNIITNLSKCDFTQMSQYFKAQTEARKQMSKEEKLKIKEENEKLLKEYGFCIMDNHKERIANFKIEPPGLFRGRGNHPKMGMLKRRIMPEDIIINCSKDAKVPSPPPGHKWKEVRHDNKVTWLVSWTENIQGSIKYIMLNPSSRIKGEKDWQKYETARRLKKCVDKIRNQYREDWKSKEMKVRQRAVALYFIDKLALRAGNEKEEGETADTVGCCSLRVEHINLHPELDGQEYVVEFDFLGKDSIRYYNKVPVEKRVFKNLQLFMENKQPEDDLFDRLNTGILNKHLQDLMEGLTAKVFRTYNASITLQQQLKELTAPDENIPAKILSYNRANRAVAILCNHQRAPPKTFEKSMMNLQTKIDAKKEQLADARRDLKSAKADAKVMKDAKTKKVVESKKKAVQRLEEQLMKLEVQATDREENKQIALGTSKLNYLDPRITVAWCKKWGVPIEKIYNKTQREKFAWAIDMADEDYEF
Nature of the assay: DNA topoisomerase I assay (relaxation of supercoiled plasmid DNA, agarose gel). The format is biochemical. The note with it: agarose gel electrophoresis, camptothecin positive control, Figure 12. How it is done:
The topoisomerase I inhibition activities of final compounds were measured as relaxation of supercoiled plasmid DNA using agarose gel electrophoresis and camptothecin was used as a positive control. The assay was carried out in a final volume of 20 µl reaction volume containing 2 µl of 10xTGS Buffer, 6 µl water, 2 µl supercoiled plasmid DNA, 2 µl test compound, 2 µl of Top1, 2 ul 10% SDS, 2 µl proteinase K, 2 µl DNA loading dye. After incubation of reaction mixtures at 37 °C for 30 min, electrophoresis was done on a 1% agarose gel at a potential 50 V for 75 min using 1xTAE buffer.
To determine whether the DNA intercalation properties of compounds 5a, 5b, 5d, 5e, 5k, 5l, 5n and 5o might result in Topo I inhibition, agarose gel electrophores is assay was performed to evaluate the Topo I inhibitory activity of them via agarose-gel electrophoresis and CPT was used as the positive control. The TopoGEN Topoisomerase I Drug Screening Kit were optimised and implemented to accomplish this goal.
In a previous studies, it was said that the compounds poisoning topoisomerase caused the formation of nick bands in such gel appearances, while the formation of Supercoiled bands was said to be caused by catalytic inhibitors that bound to either DNA or enzyme[40]^,[41].

Assay [4] concerns HepG2 (human liver carcinoma cell line). Nature of the assay: MTT cytotoxicity assay, HepG2. The format is cell-based. Particulars: read-out: IC50 against HepG2. How it is done:
as §1, §2

The test system of assay [5] is C6 cells. As to the kind of experiment: DNA synthesis inhibition assay (BrdU), C6. The assay is classed as cell-based, rat. The note with it: lower dose (IC50/2), 48 h vs 24 h incubation. As for the experimental part:
(§5) The BrdU cell proliferation method was performed to analyse the effects of the active compounds on proliferation of cancer cells. Cancer cells were seeded into the 96-well plates at a density of 1 × 10^4 cells. Compounds were added into the each well at three different concentrations (IC50/2, IC50 and 2xIC50) and the plates were incubated for 24 h. At the end of the incubation period, BrdU solution was added and cells were reincubated for 2 h at 37 °C. Anti-BrdU-POD ([…]) was added and the mixture was incubated for 90 min. Microplates were washed with PBS for three times. After adding substrate solution, the mixture was incubated for 15 min. OD of the wells were determined at 492 nm. Proliferation of control cells was assessed as 100% and growth inhibition % of cells, treated with test compounds and […] were calculated.
(§6) According to the MTT assay, compound 5n for A549 cell line; compounds 5a, 5d, 5e, 5o for MCF-7 cell line; compound 5k for C6 cell line; compound 5a for HepG2 cell line; compounds 5b, 5l and 5n for HeLa cell line were selected for the DNA synthesis inhibition assay. A549, C6, MCF-7, HepG2 and HeLa cells were incubated with three different concentrations (IC50/2, IC50, and […]) of the compounds for 24 and 48 h time periods. […] Doxorubicin was used as positive control.

For assay [6], the system named is MCF-7 (human breast adenocarcinoma cell line). As to the kind of experiment: MTT cytotoxicity assay, MCF-7. The format is cell-based. The note with it: read-out: IC50 against MCF-7. How it is done: as §1, §2
In assay [7] the test system is NIH3T3 (mouse embryo fibroblast cell line). Nature of the assay: MTT cytotoxicity assay, NIH3T3 healthy cells. The assay is classed as cell-based. The note with it: read-out: IC50 against NIH3T3. As for the experimental part: The anticancer activity of compounds 5a–5o were screened according to the MTT assays. The MTT assays were performed as previously described[32]^,[33]. Anticancer activity of final compounds was assessed against five different cancer cell lines A549 (lung carcinoma cell line), HeLa (cervical cell line), MCF-7 (human breast adenocarcinoma cell line), HepG2 (human liver carcinoma cell line) and C6 (rat glioma cell line) cell lines as well as NIH3T3 (mouse embryo fibroblast cell line). Doxorubicin and Hoechst 33342 were used as the reference drugs in the MTT assays. It is crucial that an anticancer agent affects the cancer cell line but having minimal or no side-effect on healthy cells. For this purpose, the cytotoxic effects of the active compounds on the NIH3T3 cell line were investigated (Table 2).

Assay [8] relates to HeLa (cervical cell line). As to the kind of experiment: MTT cytotoxicity assay, HeLa. The format is cell-based. The note with it: read-out: IC50 against HeLa. As for the experimental part: as §1, §2
The test system of assay [9] is C6 (rat glioma cell line). Nature of the assay: MTT cytotoxicity assay, C6. The note with it: read-out: IC50 against C6. The format is cell-based. How it is done: as §1, §2
Assay [10] concerns A549 cell line. Nature of the assay: Flow cytometric analysis (Annexin V/PI), A549. Particulars: at IC50 concentrations. The assay is classed as cell-based. As for the experimental part: as §3, §4
Assay [11] deals with HeLa cells. Nature of the assay: DNA synthesis inhibition assay (BrdU), HeLa. The format is cell-based. The note with it: 48 h, 5b 0.698, 5l 0.224, 5n 0.205, doxorubicin 14.280 µg/mL. As for the experimental part: as §5, §6
The subject of assay [12] is HeLa cell line. Nature of the assay: Flow cytometric analysis (Annexin V/PI), HeLa. The format is cell-based. How it is done:
as §3, §4

For assay [13], the system named is A549 cells. As to the kind of experiment: DNA synthesis inhibition assay (BrdU), A549. The format is cell-based. Particulars: 48 h. How it is done: as §5, §6

Molecules are shown by their SMILES. Like-named read-outs stand apart in the source and are kept apart here. Some results are limits rather than exact numbers.

As usually defined, the IC50 is the concentration needed to halve the response being measured.

On to `CCOc1ccc(-c2nc3ccc(-c4nnc(SCC(=O)N5CCN(C)CC5)o4)cc3[nH]2)cc1` [5k, 2-((5-(2-(4-Ethoxyphenyl)-1H-benzo[d]imidazol-6-yl)-1,3,4-oxadiazol-2-yl)thio)-1–(4-methyl-piperazin-1-yl)-ethane-1-on], for which the IC50 in assay [1] (Homo sapiens, A549, MTT assay) is 22.3 ± 1.05 µM; in assay [4] (Homo sapiens) it was not below 100 µM; in assay [6] (Homo sapiens, MCF7, MCF-7 cell line), 38.7 ± 1.88 µM; in [7] (Mus musculus), 74.6 ± 3.63 µM; in [8] (Homo sapiens), 11.2 ± 0.467 µM; in [9] (Rattus norvegicus), 3.2 ± 0.152 µM. In addition, the “percentage of apoptotic cells” value in assay [2] is given as 12.3%. Also, the “Topo I inhibition activity” value in [3] is on record as “potent topo I inhibition activity”. For the same compound, the “DNA synthesis inhibition at 48 h relative to 24 h” value in [5] is reported as “eight times higher”.

On to `CCOc1ccc(-c2nc3ccc(-c4nnc(SCC(=O)N5CCN(c6ccccn6)CC5)o4)cc3[nH]2)cc1` [5n], for which the IC50 in assay [1] (MTT assay) is 7.39 ± 0.325 µM; in assay [4], not below 100 µM; in assay [6] (MCF-7 cell line), not below 100 µM; in assay [7], 189 ± 8.73 µM; in assay [8] it was 0.205 ± 0.01 µM; in assay [9] it was not below 100 µM. Also, the “percentage of apoptotic cells” value in [10] is 13%; in assay [12], 15.2%. In addition, the “Topo I inhibition activity” value in assay [3] is given as “potent topo I inhibition activity”. Also, the “% DNA synthesis inhibition” value in [11] is 57.65%; in assay [13] (5n at 5.39 µg/mL, doxorubicin at 6.21 µg/mL), 66.00%; in assay [13] (5n at 7.39 µg/mL, doxorubicin at 12.42 µg/mL), 68.25%; in assay [13] (5n at 14.77 µg/mL, doxorubicin at 24.84 µg/mL), 78.17%.
